Measured values as given in US6372297B1, “Wood preservative oxathiazines” (Uniroyal Chemical Company, Inc., priority 1993, dated 2002).
Values after ≈ are worked out from the molar mass of the structure shown. Where two headings read alike, the source gives them in different places.

Legend:
[1] = test system: blue-stain fungi and molds; experiment: Activity against blue-stain fungi and molds in a stick test (threshold concentrations); details: beech sticks, 22° C., 90% relative humidity; for Threshold concentration (ppm), A. niger, score 0 / Threshold concentration (ppm), Aureobasidium, score 0 / Threshold concentration (ppm), Sclerophoma, score 0 / Threshold concentration (ppm), Trichoderma, score 0: minimum concentration to obtain score 0; for Threshold concentration (ppm), A. niger, score 1-2 / Threshold concentration (ppm), Aureobasidium, score 1-2 / Threshold concentration (ppm), Sclerophoma, score 1-2 / Threshold concentration (ppm), Trichoderma, score 1-2: minimum concentration to obtain score 1-2
Method: Representative compounds of this invention were dissolved in 50% ethanol. Each compound was then diluted serially using 50% ethanol. […] After three (3) hours, the solutions containing the test compounds were poured off and the treated sticks were allowed to dry in a sterile laminar air flow. Each treated stick was then placed in a Petri dish which had been previously seeded with inoculum. Two drops of a test fungal or spore suspension were pipetted onto the upper surface of each treated stick. The Petri dishes containing the treated sticks were incubated at 22° C. and 90% relative humidity. The treated sticks were evaluated after there was sufficient growth of fungus on control sticks (i.e., untreated sticks) incubated in the same manner. The following score system was used: 0: Stick free of fungal/mold growth 1: Traces of fungal growth on the stick 2: Slight growth (5 to 25% of the surface covered with fungal growth) 3: Moderate growth (25 to 50% covered with fungal growth) 4. Vigorous to maximum fungal growth (more than 50% growth) […]

[2] = test system: molds and blue-stain fungi; experiment: In vitro activity against molds and blue-stain fungi, poison plate assay (MIC); format: cell-based; details: malt extract agar, complete inhibition
Method: The effect of the representative compounds on the growth of certain molds and blue-strain fungi were determined using a poison plate assay according to the following procedure: The solutions of the representative compounds prepared above were further diluted with sterile water to desired concentrations and poured into Petri dishes. Malt extract agar medium was then added aseptically to the Petri dishes and to Petri dishes containing no compound (controls). The Petri dishes were then shaken to provide a uniform distribution of the agar medium. Each Petri dish containing compound and each control Petri dish, was then inoculated with a fungus and incubated for a period of time sufficient to permit complete growth of the fungus in the respective control Petri dish. The Petri dishes containing compound were then examined to determine the amount of inhibition of fungi for each concentration of compound tested.

[3] = A. amstelodami, read-out: MIC (ppm) against A. amstelodami
[4] = Aspergillus niger, A. niger, read-out: MIC (ppm) against A. niger
[5] = Aspergillus versicolor, A. versicolor, read-out: MIC (ppm) against A. versicolor
[6] = Aureobasidium pullulans, A. pullulans, read-out: MIC (ppm) against A. pullulans
[7] = C. pilifera, read-out: MIC (ppm) against C. pilifera
[8] = Cladosporium cladosporioides, C. cladosporioides, read-out: MIC (ppm) against C. cladosporioides
[9] = Fusarium solani, F. solani, read-out: MIC (ppm) against F. solani
[10] = Geotrichum candidum, G. candidum, read-out: MIC (ppm) against G. candidum
[11] = P. purpurogenum, read-out: MIC (ppm) against P. purpurogenum
[12] = P. violacea, read-out: MIC (ppm) against P. violacea
[13] = Paecilomyces variotii, P. variotii, read-out: MIC (ppm) against P. variotii
[14] = S. atra, read-out: MIC (ppm) against S. atra
[15] = S. entoxylina, read-out: MIC (ppm) against S. entoxylina
[16] = Trichoderma viride, T. viride, read-out: MIC (ppm) against T. viride
[17] = U. atrum, read-out: MIC (ppm) against U. atrum

SMILES: CC1CS(=O)(=O)C(c2cccs2)=NO1 (stereo not shown) [Compound 51, 5,6-dihydro-6-methyl-3-(2-thienyl)-1,4,2-oxathiazine-4,4, dioxide]
- Threshold concentration (ppm), A. niger, score 0 [1]: 500 ppm
- Threshold concentration (ppm), A. niger, score 1-2 [1]: 250-500 ppm
- Threshold concentration (ppm), Aureobasidium, score 0 [1]: >1000 ppm
- Threshold concentration (ppm), Aureobasidium, score 1-2 [1]: 250-500 ppm
- Threshold concentration (ppm), Sclerophoma, score 0 [1]: 100 ppm
- Threshold concentration (ppm), Sclerophoma, score 1-2 [1]: 50-100 ppm
- Threshold concentration (ppm), Trichoderma, score 0 [1]: 1000 ppm
- Threshold concentration (ppm), Trichoderma, score 1-2 [1]: 500-1000 ppm

SMILES: CCOC(=O)c1ccc(C2=NOCC[S+]2[O-])s1 (stereo not shown) [Compound 54]
- Threshold concentration (ppm), A. niger, score 0 [1]: 500 ppm
- Threshold concentration (ppm), A. niger, score 1-2 [1]: <250 ppm
- Threshold concentration (ppm), Aureobasidium, score 0 [1]: 500 ppm
- Threshold concentration (ppm), Aureobasidium, score 1-2 [1]: 250-500 ppm
- Threshold concentration (ppm), Sclerophoma, score 0 [1]: 100 ppm
- Threshold concentration (ppm), Sclerophoma, score 1-2 [1]: <50 ppm
- Threshold concentration (ppm), Trichoderma, score 0 [1]: 5000 ppm
- Threshold concentration (ppm), Trichoderma, score 1-2 [1]: 500-1000 ppm

SMILES: N#Cc1ccc(C2=NOCC[S+]2[O-])s1 (stereo not shown) [Compound 57]
- MIC (ppm) against A. amstelodami ([2]; A. amstelodami): 10 ppm
- MIC (ppm) against A. niger ([2]; A. niger): 10 ppm
- MIC (ppm) against A. pullulans ([2]; A. pullulans): >25 ppm
- MIC (ppm) against A. versicolor ([2]; A. versicolor): 10 ppm
- MIC (ppm) against C. cladosporioides ([2]; C. cladosporioides): 25 ppm
- MIC (ppm) against C. pilifera ([2]; C. pilifera): 10 ppm
- MIC (ppm) against F. solani ([2]; F. solani): 25 ppm
- MIC (ppm) against G. candidum ([2]; G. candidum): 25 ppm
- MIC (ppm) against P. purpurogenum ([2]; P. purpurogenum): 10 ppm
- MIC (ppm) against P. variotii ([2]; P. variotii): 25 ppm
- MIC (ppm) against P. violacea ([2]; P. violacea): 25 ppm
- MIC (ppm) against S. atra ([2]; S. atra): 10 ppm
- MIC (ppm) against S. entoxylina ([2]; S. entoxylina): 10 ppm
- MIC (ppm) against T. viride ([2]; T. viride): >25 ppm
- MIC (ppm) against U. atrum ([2]; U. atrum): 25 ppm
- Threshold concentration (ppm), A. niger, score 0 [1]: 500 ppm
- Threshold concentration (ppm), A. niger, score 1-2 [1]: <250 ppm
- Threshold concentration (ppm), Aureobasidium, score 0 [1]: >1000 ppm
- Threshold concentration (ppm), Aureobasidium, score 1-2 [1]: 250-500 ppm
- Threshold concentration (ppm), Sclerophoma, score 0 [1]: 100 ppm
- Threshold concentration (ppm), Sclerophoma, score 1-2 [1]: <50 ppm
- Threshold concentration (ppm), Trichoderma, score 0 [1]: 1000 ppm
- Threshold concentration (ppm), Trichoderma, score 1-2 [1]: 500-1000 ppm

SMILES: N#Cc1ccc(C2=NOCCS2(=O)=O)s1 [Compound 58]
- MIC (ppm) against A. amstelodami ([2]; A. amstelodami): 5 ppm
- MIC (ppm) against A. niger ([2]; A. niger): 5 ppm
- MIC (ppm) against A. pullulans ([2]; A. pullulans): 25 ppm
- MIC (ppm) against A. versicolor ([2]; A. versicolor): 5 ppm
- MIC (ppm) against C. cladosporioides ([2]; C. cladosporioides): 10 ppm
- MIC (ppm) against C. pilifera ([2]; C. pilifera): 5 ppm
- MIC (ppm) against F. solani ([2]; F. solani): 10 ppm
- MIC (ppm) against G. candidum ([2]; G. candidum): 25 ppm
- MIC (ppm) against P. purpurogenum ([2]; P. purpurogenum): 10 ppm
- MIC (ppm) against P. variotii ([2]; P. variotii): 25 ppm
- MIC (ppm) against P. violacea ([2]; P. violacea): 25 ppm
- MIC (ppm) against S. atra ([2]; S. atra): 5 ppm
- MIC (ppm) against S. entoxylina ([2]; S. entoxylina): 5 ppm
- MIC (ppm) against T. viride ([2]; T. viride): 25 ppm
- MIC (ppm) against U. atrum ([2]; U. atrum): 10 ppm
- Threshold concentration (ppm), A. niger, score 0 [1]: 500 ppm
- Threshold concentration (ppm), A. niger, score 1-2 [1]: <250 ppm
- Threshold concentration (ppm), Aureobasidium, score 0 [1]: >1000 ppm
- Threshold concentration (ppm), Aureobasidium, score 1-2 [1]: 500-1000 ppm
- Threshold concentration (ppm), Sclerophoma, score 0 [1]: 100 ppm
- Threshold concentration (ppm), Sclerophoma, score 1-2 [1]: <50 ppm
- Threshold concentration (ppm), Trichoderma, score 0 [1]: 5000 ppm
- Threshold concentration (ppm), Trichoderma, score 1-2 [1]: 1000-2500 ppm

SMILES: [O-][S+]1CCON=C1c1ccc(Cl)s1 (stereo not shown) [Compound 60, 3-(5-Chloro-2-thienyl)-5.6-dihydro-1.4.2-oxathiazine-4-oxide]
- MIC (ppm) against A. amstelodami ([2]; A. amstelodami): 5 ppm
- MIC (ppm) against A. niger ([2]; A. niger): 5 ppm
- MIC (ppm) against A. pullulans ([2]; A. pullulans): 25 ppm
- MIC (ppm) against A. versicolor ([2]; A. versicolor): 2.5 ppm
- MIC (ppm) against C. cladosporioides ([2]; C. cladosporioides): 25 ppm
- MIC (ppm) against C. pilifera ([2]; C. pilifera): 5 ppm
- MIC (ppm) against F. solani ([2]; F. solani): 10 ppm
- MIC (ppm) against G. candidum ([2]; G. candidum): 25 ppm
- MIC (ppm) against P. purpurogenum ([2]; P. purpurogenum): 25 ppm
- MIC (ppm) against P. variotii ([2]; P. variotii): 10 ppm
- MIC (ppm) against P. violacea ([2]; P. violacea): 10 ppm
- MIC (ppm) against S. atra ([2]; S. atra): 5 ppm
- MIC (ppm) against S. entoxylina ([2]; S. entoxylina): 5 ppm
- MIC (ppm) against T. viride ([2]; T. viride): 25 ppm
- MIC (ppm) against U. atrum ([2]; U. atrum): 10 ppm
- Threshold concentration (ppm), A. niger, score 0 [1]: 500 ppm
- Threshold concentration (ppm), A. niger, score 1-2 [1]: <250 ppm
- Threshold concentration (ppm), Aureobasidium, score 0 [1]: 1000 ppm
- Threshold concentration (ppm), Aureobasidium, score 1-2 [1]: 100-250 ppm
- Threshold concentration (ppm), Sclerophoma, score 0 [1]: 100 ppm
- Threshold concentration (ppm), Sclerophoma, score 1-2 [1]: <50 ppm
- Threshold concentration (ppm), Trichoderma, score 0 [1]: 2500 ppm
- Threshold concentration (ppm), Trichoderma, score 1-2 [1]: 500-1000 ppm

SMILES: [O-][S+]1CCON=C1c1nc2ccccc2o1 (stereo not shown) [Compound 81]
- Threshold concentration (ppm), A. niger, score 0 [1]: 500 ppm
- Threshold concentration (ppm), A. niger, score 1-2 [1]: 250-500 ppm
- Threshold concentration (ppm), Aureobasidium, score 0 [1]: >1000 ppm
- Threshold concentration (ppm), Aureobasidium, score 1-2 [1]: 250-500 ppm
- Threshold concentration (ppm), Sclerophoma, score 0 [1]: 250 ppm
- Threshold concentration (ppm), Sclerophoma, score 1-2 [1]: <50 ppm
- Threshold concentration (ppm), Trichoderma, score 0 [1]: 2500 ppm
- Threshold concentration (ppm), Trichoderma, score 1-2 [1]: 500-1000 ppm

SMILES: O=S1(=O)CCON=C1c1nc2ccccc2s1 [Compound 83, 5,6-dihydro-3-(2-benzothiazolyl)-1,4,2-oxathiazine 4,4-dioxide]
- MIC [2, 3]: > 25 µg/mL
- MIC [2, 4]: > 25 µg/mL
- MIC [2, 5]: 25 µg/mL (≈ 93.2 µM)
- MIC [2, 6]: > 25 µg/mL
- MIC [2, 7]: 10 µg/mL (≈ 37.3 µM)
- MIC [2, 8]: > 25 µg/mL
- MIC [2, 9]: > 25 µg/mL
- MIC [2, 10]: > 25 µg/mL
- MIC [2, 11]: > 25 µg/mL
- MIC [2, 12]: > 25 µg/mL
- MIC [2, 13]: > 25 µg/mL
- MIC [2, 14]: 5 µg/mL (≈ 18.6 µM)
- MIC [2, 15]: 10 µg/mL (≈ 37.3 µM)
- MIC [2, 16]: > 25 µg/mL
- MIC [2, 17]: > 25 µg/mL

SMILES: [O-][S+]1CCON=C1c1nc2ccccc2s1 (stereo not shown) [Compound 85, 5,6-dihydro-3-(2-benzothiazolyl)-1,4,2-oxathiazine-4-oxide]
- MIC [2, 3]: 5 µg/mL (≈ 19.8 µM)
- MIC [2, 4]: 5 µg/mL (≈ 19.8 µM)
- MIC [2, 5]: 2.5 µg/mL (≈ 9.91 µM)
- MIC [2, 6]: 25 µg/mL (≈ 99.1 µM)
- MIC [2, 7]: 2.5 µg/mL (≈ 9.91 µM)
- MIC [2, 8]: 25 µg/mL (≈ 99.1 µM)
- MIC [2, 9]: 25 µg/mL (≈ 99.1 µM)
- MIC [2, 10]: 10 µg/mL (≈ 39.6 µM)
- MIC [2, 11]: 10 µg/mL (≈ 39.6 µM)
- MIC [2, 12]: 10 µg/mL (≈ 39.6 µM)
- MIC [2, 13]: 25 µg/mL (≈ 99.1 µM)
- MIC [2, 14]: 2.5 µg/mL (≈ 9.91 µM)
- MIC [2, 15]: 5 µg/mL (≈ 19.8 µM)
- MIC [2, 16]: 25 µg/mL (≈ 99.1 µM)
- MIC [2, 17]: 10 µg/mL (≈ 39.6 µM)
- Threshold concentration (ppm), A. niger, score 0 [1]: 1000 ppm
- Threshold concentration (ppm), A. niger, score 1-2 [1]: <250 ppm
- Threshold concentration (ppm), Aureobasidium, score 0 [1]: 1000 ppm
- Threshold concentration (ppm), Aureobasidium, score 1-2 [1]: 250-500 ppm
- Threshold concentration (ppm), Sclerophoma, score 0 [1]: 100 ppm
- Threshold concentration (ppm), Sclerophoma, score 1-2 [1]: <50 ppm
- Threshold concentration (ppm), Trichoderma, score 0 [1]: 2500 ppm
- Threshold concentration (ppm), Trichoderma, score 1-2 [1]: 1000-2500 ppm

SMILES: Cc1ccc2oc(C3=NOCC[S+]3[O-])nc2c1 (stereo not shown) [Compound 89]
- Threshold concentration (ppm), A. niger, score 0 [1]: 500 ppm
- Threshold concentration (ppm), A. niger, score 1-2 [1]: 250-500 ppm
- Threshold concentration (ppm), Aureobasidium, score 0 [1]: >1000 ppm
- Threshold concentration (ppm), Aureobasidium, score 1-2 [1]: 100-250 ppm
- Threshold concentration (ppm), Sclerophoma, score 0 [1]: 250 ppm
- Threshold concentration (ppm), Sclerophoma, score 1-2 [1]: <50 ppm
- Threshold concentration (ppm), Trichoderma, score 0 [1]: 2500 ppm
- Threshold concentration (ppm), Trichoderma, score 1-2 [1]: 1000-2500 ppm
